# Test results from US4533666A, “6-Phenyl-2,3-bis-(4-methoxyphenyl)-pyridine derivatives having anti-inflammatory activity” (Eli Lilly and Company, priority 1983, dated 1985).
# Columns and labels:
# [1] = Established adjuvant-induced arthritis test in rats, uninjected paw volume inflammation; assay type: in vivo, rat (male Lewis-Wistar rats); details: Days 14 through 30, AUC difference
# [2] = mouse writhing assay (acetic acid-induced); assay type: in vivo, mouse (Cox standard strain albino male mice); details: oral gavage in corn oil-acacia emulsion (5%), three hours before acetic acid (0.60 percent) i.p., five mice per group; for ED50: Mus musculus, po, 3 h
# Source text: The analgesic activity of a number of compounds provided by this invention has been determined in the standard mouse writhing assay. Writhing, which is characterized by contraction of the abdominal musculature, extension of the hindlegs, and rotation of the trunk, was induced in Cox standard strain albino male mice. The mice, weighing 18-24 grams, were fasted overnight and given the test compound by gavage in a corn oil-acacia emulsion (5%) three hours before writhing was induced by the intraperitoneal administration of acetic acid (0.60 percent). Each treatment group consisted of five mice. The total number of writhes for the treatment group was determined during a 10-minute observation starting five minutes after acetic acid administration. […] Table I which follows presents typical test results obtained with certain of the compounds of this invention. The results in the mouse writhing assay are presented as the effective oral (p.o.) dose in mg./kg. of the tested compound required to inhibit induced writhing in the test animals by fifty percent (ED50).
Compound,% Inhibition of Uninjected Paw Volume Inflammation ([1]; 10 mg./kg. p.o. × 15) [%],% Inhibition of Uninjected Paw Volume Inflammation ([1]; 25 mg./kg. p.o. × 15) [%],ED50 [2] [mg/kg],% Inhibition of Uninjected Paw Volume Inflammation ([1]; 5 mg./kg. p.o. × 15) [%],other results
"COc1ccc(-c2ccc(-c3ccc(Br)cc3)nc2-c2ccc(OC)cc2)cc1 [Example 4, 6-(4-Bromophenyl)-2,3-bis(4-methoxyphenyl)pyridine]",27,48,4.1,,
"COc1ccc(-c2ccc(-c3ccccc3)nc2-c2ccc(OC)cc2)cc1 [Example 2, 6-Phenyl-2,3-bis(4-methoxyphenyl)pyridine]",,,2.7,,"% Inhibition of Uninjected Paw Volume Inflammation ([1]; 25 mg./kg. p.o. × 15, Average of two experiments): 40%"
"COc1ccc(-c2ccc(-c3ccc(Cl)cc3)nc2-c2ccc(OC)cc2)cc1 [Example 3, 6-(4-Chlorophenyl)-2,3-bis(4-methoxyphenyl)pyridine]",58,,0.78,30,
"COc1ccc(-c2ccc(-c3ccc(F)cc3)nc2-c2ccc(OC)cc2)cc1 [Example 6, 6-(4-Fluorophenyl)-2,3-bis(4-methoxyphenyl)pyridine 4-methylbenzenesulfonate]",,,,,"% Inhibition of Uninjected Paw Volume Inflammation ([1]; 5 mg./kg. p.o. × 15, 4-methylbenzenesulfonate): 69%; % Inhibition of Uninjected Paw Volume Inflammation ([1]; 10 mg./kg. p.o. × 15, 4-methylbenzenesulfonate): 71%; Mouse Writhing ED50 ([2]; 180 min, 4-methylbenzenesulfonate, 180 min): 4.2 mg./kg. p.o."
"COc1ccc(-c2ccc(-c3ccc(F)cc3)nc2-c2ccc(OC)cc2)cc1 [Example 1, 6-(4-Fluorophenyl)-2,3-bis(4-methoxyphenyl)pyridine]",80,,3.5,70,
"COc1ccc(-c2ccc(-c3ccc(C(F)(F)F)cc3)nc2-c2ccc(OC)cc2)cc1 [Example 7, 6-(4-Trifluoromethylphenyl)-2,3-bis(4-methoxyphenyl)pyridine]",,33,8.9,,
